Tests used:
[1] = target: full length human wildtype Btk (Homo sapiens (Human), UniProt Q06187); experiment: Biochemical Btk Kinase Assay
Procedure: Formula I compounds were tested by a standard biochemical Btk Kinase Assay (Example 901). A generalized procedure for a standard biochemical Btk Kinase Assay that can be used to test Formula I compounds is as follows. […] Btk enzyme is prepared as follows: full length human wildtype Btk (accession number NM-000061) with a C-terminal V5 and 6× His tag was subcloned into pFastBac vector for making baculovirus carrying this epitope-tagged Btk. Generation of baculovirus is done based on Invitrogen's instructions detailed in its published protocol “Bac-to-Bac Baculovirus Expression Systems” (Cat. Nos. 10359-016 and 10608-016). […] A quantity of 1.25 μL of compounds in 5% DMSO is transferred to a 96-well ½ area Costar polystyrene plate. […] A quantity of 18.75 μL of master mix minus enzyme (as a negative control) and master mix plus enzyme is transferred to appropriate wells in 96-well ½ area costar polystyrene plate. […] The plate is read using time-resolved fluorescence with a Perkin Elmer Envision using excitation filter 330 nm, emission filter 665 nm, and 2nd emission filter 615 nm. IC50 values are subsequently calculated. Alternatively, the Lanthascreen assay can be used to evaluate Btk activity through quantification of its phosphorylated peptide product. […] Detection is determined on a Perkin Elmer Envision with 340 nm excitation and emission at 495 nm and 520 nm. […]

[2] = tested on: CD69 by B lymphocytes in human whole blood; experiment: CD69 Whole Blood Assay; type: cell-based; details: Lymphocyte; human whole blood activated with goat F(ab')2 anti-human IgM, 20 hours; CD69 positive cells that are also CD20 positive
Source text: A CD69 Whole Blood Assay can be conducted on Formula I compounds to determine the ability of compounds to inhibit the production of CD69 by B lymphocytes in human whole blood activated by crosslinking surface IgM with goat F(ab′)2 anti-human IgM (Example 907).
Human blood is obtained from healthy volunteers, with the following restrictions: 1 week drug-free, non-smokers. Blood (approximately 20 mls to test 8 compounds) is collected by venipuncture into Vacutainer® (Becton, Dickinson and Co.) tubes with sodium heparin.
Solutions of Formula I compounds at 10 mM in DMSO are diluted 1:10 in 100% DMSO, then are diluted by three-fold serial dilutions in 100% DMSO for a ten point dose-response curve. The compounds are further diluted 1:10 in PBS and then an aliquot of 5.5 μl of each compound is added in duplicate to a 2 ml 96-well plate; 5.5 μl of 10% DMSO in PBS is added as control and no-stimulus wells. Human whole blood—HWB (100 μl) is added to each well. After mixing the plates are incubated at 37° C., 5% CO2, 100% humidity for 30 minutes. […] Data acquired and Mean Fluorescence Intensity values were obtained using BD Biosciences DIVA Software. Results are initially analyzed by FACS analysis software (Flow Jo). […] The IC50 values are calculated by Prism version 5, using a nonlinear regression curve fit.

full length human wildtype Btk, sequence (Q06187 whole entry): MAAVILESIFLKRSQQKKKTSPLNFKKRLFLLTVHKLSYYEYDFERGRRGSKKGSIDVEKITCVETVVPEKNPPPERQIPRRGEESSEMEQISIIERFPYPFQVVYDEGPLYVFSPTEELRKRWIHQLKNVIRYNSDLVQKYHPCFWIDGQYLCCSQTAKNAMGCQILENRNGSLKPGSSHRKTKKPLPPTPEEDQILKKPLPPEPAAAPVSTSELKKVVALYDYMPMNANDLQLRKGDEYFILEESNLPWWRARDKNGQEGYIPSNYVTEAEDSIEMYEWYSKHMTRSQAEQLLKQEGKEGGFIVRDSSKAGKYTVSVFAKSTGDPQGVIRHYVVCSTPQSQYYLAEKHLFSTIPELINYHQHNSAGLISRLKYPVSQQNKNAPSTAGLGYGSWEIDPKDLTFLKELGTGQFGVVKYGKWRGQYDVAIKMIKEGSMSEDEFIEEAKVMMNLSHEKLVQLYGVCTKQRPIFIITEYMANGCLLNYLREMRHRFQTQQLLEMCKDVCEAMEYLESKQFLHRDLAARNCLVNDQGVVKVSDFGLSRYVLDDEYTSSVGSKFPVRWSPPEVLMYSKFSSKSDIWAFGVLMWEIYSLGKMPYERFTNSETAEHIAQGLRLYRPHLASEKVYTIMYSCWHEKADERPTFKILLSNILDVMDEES

SMILES | IC50 [1] [nM] | IC50 [2] [nM] | melting point [°C]
Cc1c(-c2cc(Nc3cc4n(n3)CCN(C)C4)c(=O)[nH]n2)cccc1N1Cc2ccc(C(C)(C)C)cc2C1=O [Compound 107, 6-tert-Butyl-2-(2-methyl-3-(5-(5-methyl-4,5,6,7-tetrahydropyrazolo[1,5-a]pyrazin-2-ylamino)-6-oxo-1,6-dihydropyridazin-3-yl)phenyl)isoindolin-1-one] | 14 | 461 | 208 to 210
CN1CCn2nc(Nc3cc(-c4cccc(N5Cc6cc(C(C)(C)C)ccc6C5=O)c4CO)nn(C)c3=O)cc2C1 [Compound 145, 5-tert-butyl-2-[2-(hydroxymethyl)-3-[1-methyl-5-({5-methyl-4H,5H,6H,7H-pyrazolo[1,5-a]pyrazin-2-yl}amino)-6-oxo-1,6-dihydropyridazin-3-yl]phenyl]-2,3-dihydro-1H-isoindol-1-one] |  | 91 | 
Cc1c(-c2cc(Nc3cc4n(n3)CCN(C)C4)c(=O)n(COP(=O)([O-])[O-])n2)cccc1N1Cc2cc(C(C)(C)C)sc2C1=O.[Na+].[Na+] [Compound 108, Sodium (3-(3-(2-tert-Butyl-6-oxo-4H-thieno[2,3-c]pyrrol-5(6H)-yl)-2-methylphenyl)-5-(5-methyl-4,5,6,7-tetrahydropyrazolo[1,5-a]pyrazin-2-ylamino)-6-oxopyridazin-1(6H)-yl)methyl Phosphate] |  |  | 240 to 242
CCn1ccc(Nc2cc(-c3cccc(N4Cc5cc(C(C)(C)C)ccc5C4=O)c3CO)nn(C)c2=O)n1 [Compound 102, 5-tert-Butyl-2-(3-(5-(1-ethyl-1H-pyrazol-3-ylamino)-1-methyl-6-oxo-1,6-dihydropyridazin-3-yl)-2-(hydroxymethyl)phenyl)isoindolin-1-one] |  |  | 174 to 176
Cn1nc(-c2cccc(N3Cc4cc(C(C)(C)C)ccc4C3=O)c2CO)cc(Nc2ccccn2)c1=O [Compound 104, 5-tert-Butyl-2-(2-(hydroxymethyl)-3-(1-methyl-6-oxo-5-(pyridin-2-ylamino)-1,6-dihydropyridazin-3-yl)phenyl)isoindolin-1-one] |  |  | 236 to 237
Cn1nc(-c2cccc(N3Cc4cc(C(C)(C)C)ccc4C3=O)c2CO)cc(Nc2ccn(C3CNC3)n2)c1=O [Compound 105, 2-(3-(5-(1-(Azetidin-3-yl)-1H-pyrazol-3-ylamino)-1-methyl-6-oxo-1,6-dihydropyridazin-3-yl)-2-(hydroxymethyl)phenyl)-5-tert-butylisoindolin-1-one] |  |  | 202 to 204
CCN(C)c1ccc2c(c1)CN(c1cccc(-c3cc(Nc4cc5n(n4)CCN(C)C5)c(=O)n(C)n3)c1CO)C2=O [Compound 106, 5-(Ethyl(methyl)amino)-2-(2-(hydroxymethyl)-3-(1-methyl-5-(5-methyl-4,5,6,7-tetrahydropyrazolo[1,5-a]pyrazin-2-ylamino)-6-oxo-1,6-dihydropyridazin-3-yl)phenyl)isoindolin-1-one] |  |  | 145 to 147
Cn1nc(-c2cccc(N3Cc4cc(C(C)(C)C)ccc4C3=O)c2CO)cc(Nc2ccncn2)c1=O [Compound 103, 5-tert-Butyl-2-(2-(hydroxymethyl)-3-(1-methyl-6-oxo-5-(pyrimidin-4-ylamino)-1,6-dihydropyridazin-3-yl)phenyl)isoindolin-1-one] |  |  | 236 to 238
